Experimental data: patent US9988405B2, “O-phenyl chalcone compounds and uses thereof” (Neopanora Bio-technology (Zhuhai) Ltd., priority 2014, dated 2018)
pIC50: −log10 of the molar value. Where two headings read alike, the source gives them in different places.

Tests used:
Type in all cases: cell-based
[1] = test system: human ovary cancer cells A2780; assay: SRB anti-proliferative assay, A2780; settings: read-out: Anti-proliferative IC50, A2780
Method: (§1) The present example evaluated the anti-tumor activity of the molecules provided by the present invention. The present example mainly used a method with SRB (sulforhodamine B) dying, in which proteins in the cell were stained with SRB dye to determine protein content in the cell so as to characterize cell growth density. Firstly, the test compound was formulated into a stock solution (10 mM), which was stored at 4° C. in a refrigerator. Prior to beginning the assay, the stock solution was diluted with DMSO into a series of different concentrations. The required concentrations were obtained by diluting with complete growth medium. Well growing cells were seeded in a 96-well plate (5000 cells/well, 100 uL) and cultured in an incubator at 37° C., 5% CO2, and 90% RH. 24 h later, the prepared compound solution (100 μL) was slowly added to cell solution in the 96-well plate, and the well with DMSO (final concentration 0.5%) instead of the drug was used as a drug free control. The plate was incubated for 48 h. In addition, a day 0 plate that was drug free was directly detected after cell seeded in the plate for 24 h. The 96-well plate was taken out and added with trichloroacetic acid (50 μL, final concentration 10%). The plate was incubated at 4° C. for 1 h to fix the cells.
(§2) The plate was washed with ultrapure water and air-dried. The plate was then stained with SRB dye (0.4% in 1% acetic acid, 100 μL) for 30 min at room temperature. The plate was then washed with 1% acetic acid and then air-dried. A Tris base solution (100 μL, 10 mM, pH10.4) was added, after which the plate was gently shaken for 1 h on an orbital shaker to ensure that the dyes were completed dissolved. The optical density (OD) was recorded on a TECAN Infinite M200 Pro multimode reader at 515 nm. The cell growth (% of control)=(OD value of wells added with drug−mean OD value of Day 0 plate)/(OD value of DMSO drug-free control well−mean OD value of Day 0 plate)*100.

[2] = test system: human colon cancer cells HCT8; assay: SRB anti-proliferative assay, HCT-8; settings: read-out: Anti-proliferative IC50, HCT-8
Method: as §1, §2

[3] = test system: human lung cancer cells A549; assay: SRB anti-proliferative assay, A549; settings: read-out: Anti-proliferative IC50, A549
Method: as §1, §2

[4] = test system: human breast cancer cells MCF7; assay: SRB anti-proliferative assay, MCF-7; settings: read-out: Anti-proliferative IC50, MCF-7
Method: as §1, §2

[5] = test system: human nasopharyngeal carcinoma cells CNE2; assay: SRB anti-proliferative assay, CNE2; settings: read-out: Anti-proliferative IC50, CNE2
Method: as §1, §2

[6] = test system: human colon cancer cells SW480; assay: SRB anti-proliferative assay, SW480; settings: read-out: Anti-proliferative IC50, SW480
Method: as §1, §2

[7] = test system: human liver cancer cell HepG2; assay: SRB anti-proliferative assay, HepG2; settings: read-out: Anti-proliferative IC50, HepG2
Method: as §1, §2

[8] = test system: Paclitaxel-resistant human ovarian carcinoma cell A2780/TAX; assay: SRB anti-proliferative assay, drug-resistant A2780/TAX; settings: read-out: Anti-proliferative IC50, A2780/TAX
Method: as §1, §2
(§3) We also evaluated the anti-proliferation activities of selected compounds against drug-resistant cancer cell lines.

[9] = test system: incristine resistant human ileocecum carcinoma cell HCT-8/VCT; assay: SRB anti-proliferative assay, drug-resistant HCT-8/VCT; settings: HCT8/VCT, read-out: Anti-proliferative IC50, HCT-8/VCT
Method: as §1, §2, §3

[10] = test system: cis-platinum resistant human lung cancer cell A549/CDDP; assay: SRB anti-proliferative assay, drug-resistant A549/CDDP; settings: read-out: Anti-proliferative IC50, A549/CDDP
Method: as §1, §2, §3

[11] = test system: doxorubicin resistant breast cancer cell MCF-7/DOX; assay: SRB anti-proliferative assay, drug-resistant MCF-7/DOX; settings: Homo sapiens, MCF7-DOX, read-out: Anti-proliferative IC50, MCF-7/DOX
Method: as §1, §2, §3

[12] = paclitaxel-resistant A2780/TAX, SRB
[13] = vincristine-resistant HCT-8/VCT, SRB
[14] = cis-platinum resistant A549/CDDP, SRB
[15] = doxorubicin resistant MCF-7/DOX, SRB

Compound | pIC50 ([1]; A2780, SRB, 48 h) | pIC50 ([2]; HCT-8, SRB, 48 h) | pIC50 ([3]; A549, SRB, 48 h) | pIC50 ([4]; MCF7, MCF-7, SRB, 48 h) | pIC50 ([5]; CNE-2, CNE2, SRB, 48 h) | pIC50 ([6]; SW480, SRB, 48 h) | pIC50 ([7]; HepG2, SRB, 48 h) | pIC50 [8, 12] | pIC50 [9, 13] | pIC50 [10, 14] | pIC50 [11, 15] | further results
COc1ccc(/C=C/C(=O)c2ccccc2-c2cccc(F)c2)cc1B(O)O [compound 6, (E)-(5-(3-(3′-Fluoro[1,1′-biphenyl]-2-yl)-3-oxoprop-1-en-1-yl)-2-methoxyphenyl)boronic Acid] | 7.21 | 7.27 | 7.23 | 7.08 | 7.26 | 7.26 | 7.43 | 6.91 | 7.11 | 7.20 | 7.13 | –
CN(C)c1ccc(/C=C/C(=O)c2ccccc2-c2cccc(F)c2)cc1 [compound 7, (E)-3-(4-(Dimethylamino)phenyl)-1-(3′-fluoro[1,1′-biphenyl]-2-yl)prop-2-en-1-one] | 7.14 | 7.04 | 7.32 | 7.32 | 7.60 | 7.36 | 7.43 | 7.26 | 7.07 | 7.17 | 7.49 | –
COc1ccc(/C=C/C(=O)c2ccccc2-c2ccc(F)cc2)cc1S(=O)(=O)O [compound 24, (E)-5-(3-(4′-Fluoro[1,1′-biphenyl]-2-yl)-3-oxoprop-1-en-1-yl)-2-methoxy benzenesulfonic acid] | 7.82 | 7.77 | 7.70 | 7.26 | 7.74 | 7.85 | 7.89 | 7.21 | 7.07 | 7.03 | 8.10 | –
COc1ccc(/C=C/C(=O)c2ccccc2-c2ccc(F)cc2)cc1OP(=O)(O)O [compound 11, (E)-(5-(3-(4′-Fluoro[1,1′-biphenyl]-2-yl)-3-oxoprop-1-en-1-yl)-2-Methoxyphenol) phosphate ester] | – | – | – | – | – | – | – | – | – | – | – | pIC50 ([1]; A2780, 48 h): 7.19; pIC50 ([2]; HCT-8, 48 h): 7.06; pIC50 ([3]; A549, 48 h): 7.64; pIC50 ([4]; MCF7, 48 h): 7.02; pIC50 ([5]; CNE-2, 48 h): 7.28; pIC50 ([6]; SW480, 48 h): 7.66; pIC50 ([7]; HepG2, 48 h): 7.41; pIC50 ([8]; A2780/TAX): 6.90; pIC50 [9]: 6.58; pIC50 ([10]; A549/CDDP): 6.52; pIC50 [11]: 7.59
O=C(/C=C/c1cccc(O)c1)c1ccccc1-c1cccc(F)c1 [compound 12, (E)-1-(3′-Fluoro[1,1′-biphenyl]-2-yl)-3-(3-hydroxy)prop-2-en-1-one] | 7.41 | 7.44 | 7.36 | 7.06 | 7.26 | 7.32 | 7.36 | 6.89 | 6.93 | 6.50 | 7.59 | –
O=C(O)c1cccc(/C=C/C(=O)c2ccccc2-c2cccc(F)c2)c1 [compound 20] | 7.46 | 7.55 | 7.35 | 7.10 | 7.68 | 7.31 | 7.54 | 6.92 | 6.92 | 6.66 | 7.27 | –
COc1ccc(-c2ccccc2C(=O)/C=C/c2ccc(N(C)C)cc2)c(OC)c1OC [compound 9, (E)-1-(2′,3′,4′-trimethoxy[1,1′-biphenyl]-2-yl)-3-(4-(Dimethylamino)phenyl)prop-2-en-1-one] | 6.93 | 6.82 | 7.07 | 6.91 | 7.28 | 7.43 | 7.14 | 6.81 | 6.77 | 6.40 | 7.28 | –
